The results in this text go back to ChEMBL document CHEMBL5107977, “Inhibition of MARK4 by serotonin as an attractive therapeutic approach to combat Alzheimer's disease and neuroinflammation” (RSC Med Chem, 2022).

As usually defined, the IC50 is the concentration needed to halve the response being measured.

For assay [1], the target named is T1, MAP/microtubule affinity-regulating kinase 4 (Homo sapiens) (UniProt Q96L34).
T1 sequence (whole entry): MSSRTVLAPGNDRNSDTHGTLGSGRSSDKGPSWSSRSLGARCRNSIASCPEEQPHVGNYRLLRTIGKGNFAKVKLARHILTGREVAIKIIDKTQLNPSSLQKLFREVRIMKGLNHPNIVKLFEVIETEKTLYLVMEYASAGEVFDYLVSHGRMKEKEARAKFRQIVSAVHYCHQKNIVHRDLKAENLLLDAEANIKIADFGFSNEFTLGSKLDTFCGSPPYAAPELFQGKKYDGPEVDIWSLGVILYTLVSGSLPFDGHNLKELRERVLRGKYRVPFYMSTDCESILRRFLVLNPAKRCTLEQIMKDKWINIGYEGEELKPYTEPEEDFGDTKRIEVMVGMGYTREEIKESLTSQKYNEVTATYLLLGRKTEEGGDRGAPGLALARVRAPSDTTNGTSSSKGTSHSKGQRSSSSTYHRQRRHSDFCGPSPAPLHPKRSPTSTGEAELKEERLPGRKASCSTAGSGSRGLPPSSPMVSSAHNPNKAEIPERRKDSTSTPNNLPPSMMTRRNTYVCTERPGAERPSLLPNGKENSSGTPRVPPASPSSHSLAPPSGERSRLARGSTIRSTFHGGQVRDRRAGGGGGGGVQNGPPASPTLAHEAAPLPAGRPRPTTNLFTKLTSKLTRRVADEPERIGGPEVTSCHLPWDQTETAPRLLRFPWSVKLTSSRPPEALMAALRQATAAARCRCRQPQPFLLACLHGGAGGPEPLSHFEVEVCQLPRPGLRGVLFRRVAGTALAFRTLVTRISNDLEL
Briefly: Binding affinity to MARK4 (unknown origin) assessed as Gibbs free energy change by MM-GBSA method.

Assay [2] has as its target T1, MAP/microtubule affinity-regulating kinase 4 (Homo sapiens). Briefly: Binding affinity to MARK4 (unknown origin) assessed as binding constant by fluorescence binding assay based spectroscopy.
The target is the same in assay [3]. The experiment in a line: Binding affinity to MARK4 (unknown origin) assessed as association constant by isothermal titration calorimetry. In general terms: ITC needs no label: the signal is the heat of the interaction.
Assay [4] has the same target. Briefly: Binding affinity to MARK4 (unknown origin) assessed as change in enthalpy by isothermal titration calorimetry.
Assay [5] has the same target. The experiment in a line: Binding affinity to MARK4 (unknown origin) assessed as change in entropy by isothermal titration calorimetry.
Assay [6] addresses T2, MAP/microtubule affinity-regulating kinase 4 (Homo sapiens, UniProt Q96L34).
T2 sequence (Q96L34 whole entry): T1 sequence (whole entry)
Briefly: Inhibition of MARK4 (unknown origin) ATPase activity using ATP as substrate incubated for 1.5 hr in presence of MgCl2 by Biomol green reagent based ELISA. On the technique in general: An ELISA detects its analyte on a solid surface through an enzyme-linked reagent.

Turning to `NCCc1c[nH]c2ccc(O)cc12` [SEROTONIN], in assay [1], the deltaG is -32.8 kcal/mol. The K in assay [2] is 0.3 10^6/M. Further, in assay [3], the Ka was 148 10^4/M. For the same molecule, in assay [4], the deltaH is -88.2 kcal/mol. The deltaS in assay [5] is -286 cal/mol/deg. In addition, the IC50 in assay [6] worked out at 2.99 µM.
